This note sets out measurements from a melting point compilation (Tetko et al.; mined from patent text by program, amines drawn as free bases though some values may be those of a salt).

Each structure is given as a SMILES string.

Regarding `Nc1nc2ccc(NC(=O)C(=O)N3CCC(Cc4ccccc4)CC3)cc2s1`, the melting point is 203 °C. The result for `CCC(=O)[C@@H](NC(=O)OCc1ccccc1)[C@@H](C)CC` reads 57 to 58 °C. The result for `COc1cc(Cl)ccc1-c1ccc(C(C)=O)cc1[N+](=O)[O-]` reads 104 to 106 °C; that for `CCOc1ccc(CC(=O)OCc2ccc(C#N)cc2)cc1`, 59 °C.

As for `CC(=O)n1c(SC(F)(F)F)cc(-c2ccc(F)cc2)c1-c1ccc(F)cc1`, the melting point lay within 75 to 76 °C. The result for `COC(=O)C(Cc1ccccc1)C(=O)N1CCC(C(=O)O)CC1` (stereo not given) reads 138 °C; that for `O=C(O)c1cccc(C=CC(=O)N2CCc3c([nH]c4ccccc34)C2c2ccc3c(c2)OCO3)c1` (stereo not given), 156 to 158 °C.

With `CNS(=O)(=O)Oc1ccccc1OC`, the melting point was in the range of 68 to 71 °C.

Compound `CC(=O)OI(OC(C)=O)c1ccc(-c2ccc(Cl)cc2)cc1` showed a melting point of 147 to 150 °C. With `CCc1ccc(CCOc2ccc([N+](=O)[O-])cc2)nc1` the figure was 53 to 54 °C; with `O=c1[nH]c(=S)c2[nH]cnc2n1Cc1ccccc1`, 262 to 263 °C. Take `COC(=O)C1=C(Cc2ccccc2)C(=O)NCC1`: the melting point fell in the range of 104 to 108 °C. In turn, `COS(=O)(=O)CS(C)(=O)=O` yielded a melting point of 101 to 104 °C. With `CC(C)(C)c1ccc(N2CCOCC2)c(NP(=O)(O)O)c1` the figure was 79 to 83 °C; with `ClCc1cn2c(n1)CN=C(c1ccccn1)c1cc(Cl)ccc1-2`, 161 °C; with `CCCCNC(=O)C(=O)[C@H](CC(C)C)NC(=O)[C@@H](NS(=O)(=O)c1ccc(F)cc1)C(C)C`, 108 to 110 °C. With `O=C(CCN1CCOCC1)NCc1ccc2c(c1)-c1[nH]nc(-c3ccsc3)c1C2` the figure was 228 to 230 °C; with `CSCC(C)(C)c1nnc(N)s1`, 117 to 120 °C. The result for `O=C(O)c1ccc(C(=O)O)c(Cl)c1` reads 313 °C; that for `N#CC1CCCCn2cccc21` (stereo not given), 70 to 72 °C; that for `COc1ccc(OC)c(/C=C/C(=O)/C=C/C(=O)O)c1`, 145 to 146 °C.

In turn, `CN1Cc2c(C(N)=NO)ncn2-c2cccc(Br)c2C1=O` gave a melting point of 265 to 266 °C.

As to `CSc1sc(C(=O)O)c2c1-c1nc(C)sc1CC2`, the melting point was in the range of 273 to 274 °C.

The compound `CCCCCCCCOc1ccc(-c2ncc(-c3ccc(CCCCCCCC)cc3)cn2)c(F)c1` came in with a melting point of 75 °C. With `COc1ccc(C2Sc3c(ccc4ccccc34)N(CCN(C)C)C(=O)C2OC(=O)c2ccccc2O)cc1` (stereo not given) the figure was 150 to 151 °C; with `Cn1ncc2c(=O)[nH]cnc21`, 289 to 290 °C; with `C=CC1CCC2C3CC=C4CC(O)CCC4(C)C3CCC12C` (stereo not given), 132 to 135 °C. For `O=[N+]([O-])Cc1cccc(OCc2ccccc2)c1`, the melting point is 55 to 56 °C. In the case of `C[N+](C)([O-])c1ccc(/C=C/c2c(Cl)cccc2Cl)cc1`, the melting point was in the range of 80 to 82 °C. With `CCOC(=O)Cn1cc(Cc2nc3c(F)c(F)cc(F)c3s2)c2ccc(CC)nc21` the figure was 114 to 115 °C. The compound `COc1c(Cl)cc(F)c(I)c1F` registered a melting point of 62 to 64 °C. For `CC1(C)Oc2ccc(C#N)cc2C2C1OC(=O)CN2c1ccccc1` (stereo not given), the melting point was in the range of 241 to 243 °C. `COc1ccc(N=C(C#Cc2ccccc2)N2CCN(Cc3ccc(F)cc3)CC2)cc1` had a melting point of 98 °C.

The compound `Oc1c(Br)cc(-c2cccc3sc4ccccc4c23)cc1Br` returned a melting point of 128 to 130 °C. The result for `CC(C)(C)c1ccc(C(=O)Nc2cn3cc(CO)ccc3n2)cc1` reads 249 to 250 °C; that for `C1=c2ccccc2=NCO1`, 247 to 249 °C.

Take `COc1ccc(CN2C=CC=C3C2=Nc2cc(OC)ccc2S(=O)(=O)N3C)cc1`: the melting point was in the range of 179 to 180 °C. With `CC#CC(O)(C#CC)C1(Cl)CC(c2ccccc2)=CC=C1N` (stereo not given) the figure was 112 to 114 °C. With `COC(=O)c1cc(C(=O)NNC(C)=O)c2cc(Cc3ccc(F)cc3)cnc2c1O` the figure was 208 to 209 °C; with `CCC(C)c1ccc(NC(=O)c2sccc2S(=O)(=O)Nc2onc(C)c2Br)cc1` (stereo not given), 205 to 208 °C. `Nc1nc(N)nc(-c2ccc3c(c2)OCCO3)n1` gave a melting point of 241 to 244 °C. The result for `CC(=O)C1=C(C)NC(C)=C(C(=O)CCCCCCCN2CCC(c3ccccc3)(c3ccccc3)CC2)C1c1cccc([N+](=O)[O-])c1` (stereo not given) reads 141 to 145 °C. The result for `CC12CCC(C1)C1(C)Oc3ccc(C(=O)/C=C/c4ccc(C(=O)O)cc4)cc3C21C` (stereo not given) reads 225 to 227 °C. The result for `CCOCc1nc2c(N)nc(C)c(C)c2n1CC(C)C` reads 110 to 112 °C; that for `Cc1nnc(-c2ccc3occ(-c4cc(C(F)(F)F)ccc4F)c3c2)o1`, 178 to 179 °C; that for `O=c1c2cnccc2n(-c2cccc(Cl)c2)c2ncccc12`, 222 to 224 °C. Regarding `CSc1cc2c(cc1C(F)(F)F)N(C(=O)Nc1ccc(C(=O)O)cc1)CC2`, the melting point was over 200 °C. The result for `Fc1ccc(-c2ccn(C3CC4CCC(C3)N4)c2-c2ccncc2)cc1` (stereo not given) reads 204 to 205 °C.

As to `Cc1ccc(COC(=O)CCC2CCC(=O)N2)cc1` (stereo not given), the melting point was 71 to 72 °C. The result for `COc1cc2c(cc1CCNC(=O)Cc1ccccc1)CCC2` reads 135 °C. With `COc1cnnc(Oc2ccnc(OC(C)C(F)(F)F)c2)c1` (stereo not given) the figure was 100 to 102 °C. Turning to `O=C(O)c1ccccc1-c1nc(-c2ccc(Cl)c(Cl)c2)no1`, the melting point is 202 to 204 °C. `Oc1ccc2c(ccc3ccccc32)c1` showed a melting point of 165 to 167 °C. The result for `O=C(NCC1CCc2n[nH]cc2C1)[C@@H]1CCCN1C(=O)[C@@H](CC1CCCCC1)NS(=O)(=O)Cc1ccccc1` (stereo not given in full) reads 100 to 103 °C.

As for `CCCCNc1cc(CNC(=O)OCC)cc(S(N)(=O)=O)c1Oc1ccccc1`, the melting point was in the range of 105 to 107 °C. `Cc1ccccc1C(CCC(=O)O)Oc1cc(OCc2cccc(C(=O)O)c2)ccc1[N+](=O)[O-]` (racemic) gave a melting point of 85 to 87 °C. The result for `O=C(CN1CCN(CCSc2nc3cccc(C(F)(F)F)c3o2)CC1)Nc1c(C(F)(F)F)cc(O)cc1C(F)(F)F` reads 176 to 177 °C; that for `CN(C)c1ccc(NC(=O)N(C)c2cccc(-c3ccc(CC(Nc4ccccc4C(=O)c4ccccc4)C(=O)O)cc3)c2)cc1` (stereo not given), 130 °C; that for `CCn1cc(C(=O)O)c(=O)c2cc(F)c(N3CCSCC3)c(F)c21`, over 300 °C. Compound `COc1cc(/C=C/C(=O)Nc2ccccc2C(=O)O)ccc1OCc1cccnc1` returned a melting point of 245 to 251 °C. For `CC(=O)OC1(Cc2ccccn2)C(=O)N(N2CCOCC2)c2ccccc21` (stereo not given), the melting point lay in the range of 107 to 110 °C. Regarding `CCCCCCCNC(=O)N(C)c1cccc(-c2ccc(C=C(C)C(=O)O)cc2OCCCC)c1`, the melting point lay in the range of 70 to 72 °C. Take `c1ccc2c(c1)c1ccccc1c1[nH]cnc21`: the melting point was over 375 °C. For the compound `CCC(C)(C)C1=C(O)C(=O)c2ccccc2C1=O`, the melting point is 52 °C. With `CN(C)Cc1cnc2n1-c1ccc(Cl)cc1C(c1ccccc1)=NC2` the figure was 181 to 182 °C. In turn, `O=C1C(Cl)=C(C2CCCCC2)C(=O)c2ccccc21` gave a melting point of 150 to 151 °C. The result for `CCCCCC(=O)NC(C(C)=O)c1ccccc1` (stereo not given) reads 77 to 78 °C. For `CC(C)(Oc1ccc(Cl)cc1)C(=O)C(Oc1cccc(Cl)n1)n1cncn1` (stereo not given), the melting point was found to be 100 °C.

On to `O=C(c1ccc(F)cc1)c1ccc2[nH]c(=O)nc(-c3cccc(Cl)c3)c2c1`, for which the melting point worked out at 226 °C. `O=C(Nc1ccc2c(c1)CCSC2)OCc1ccccc1` returned a melting point of 116 to 118 °C. Compound `CC(N)(C=CP(=O)(O)O)CCCc1ccc(Sc2cccc(OCc3ccccc3)c2)cc1Cl` (stereo not given) showed a melting point of 243 to 245 °C. With `OCC/C(CCCCCCCCS)=C(\CCO)CCCCCCCCS` the figure was 67.4 to 68.2 °C; with `O=c1[nH]c2cc(Cl)ccc2c(O)c1-c1ccc(Cl)cc1`, over 300 °C; with `CC1(C)C(=O)Nc2cc(C(=O)Nc3ccccc3)ccc21`, 205 to 206 °C. As to `Cc1cc2nc(Cl)c3cccnc3n2n1`, the melting point came to 202 °C. For `Cc1c(NC(=O)c2ccc(-c3ccc(F)cc3)cc2)ccc2cc(CN3CCCC3CC(C)C)cnc12` (stereo not given), the melting point lay in the range of 193 to 196 °C. In turn, `CC(=O)OC1(N=NC2(OC(C)=O)CCCCC2)CCCCC1` had a melting point of 91 to 94 °C. The compound `Cc1ccc(C(=O)C2=C(O)C(=O)N(c3ccc(C)nn3)C2c2cccc(C(F)(F)F)c2)cc1` (stereo not given) registered a melting point of 232 °C.

For the compound `ClCc1coc(-c2ccsc2)n1`, the melting point was in the range of 91 to 92 °C. `O=C(O)C1Oc2ccccc2Cc2ccccc2O1` registered a melting point of 153 to 157 °C.

`COC(=O)c1cccc(NC(=O)C=Cc2ccc(OC)c(OC)c2)c1N`: the melting point lay within 144 to 146 °C. With `CC(=O)c1ccc(OCCCN2CCC(c3noc4cc(F)ccc34)CC2)cc1C` the figure was 113 to 114 °C; with `CCOc1ccc2nc(CO)n(C)c2n1`, 161 °C; with `CC(=O)N1CC(C)(C)CN=C1N(N=CC(C=Cc1ccc(C(F)(F)F)cc1)=Cc1ccc(C(F)(F)F)cc1)C(C)=O`, 70 to 72 °C. With `Cc1cc2c3c(ccc2cc1C(=O)c1ccc(Cl)cc1)OC(=O)C3(C)C` the figure was 130 to 132 °C. With `COc1ccc(Cc2nc3cc(Cl)cc(Br)c3o2)cc1OC` the figure was 123 to 124 °C; with `COC(=O)Cc1ccc2c(c1)CC(NS(=O)(=O)c1ccc(Cl)cc1)C2` (stereo not given), 80 to 82 °C; with `CCOC(=O)C1=Cc2cc(SC)ccc2OC1C(F)(F)F` (stereo not given), 87.8 to 89.6 °C. For `CC(C)(C)OC(=O)N1CCC(c2nc(-c3ccc(-c4ccccc4)cc3)c[nH]2)CC1`, the melting point was in the range of 120 to 122 °C. The result for `Cc1cc(C)nc(-n2cnc(S(=O)(=O)Nc3c(Cl)cccc3Cl)n2)n1` reads 274 to 275 °C.
